According to patent US12496298B2, “Natural killer cells” (Imperial College Innovations Limited, priority 2017, dated 2025):

Legend:
[1] = system: mouse NK cell (NK1.1+CD3−) production from HPCs; experiment: In vitro development of NK cells from mouse HPCs (NK cell development assay, flow cytometry at Day 9); type: cell-based; conditions: for increase in NK cell production, rank among 2, 5, 10 and 20 μM: confirmation experiments (FIG. 4)
Description: FIG. 2: Timeline of NK cell development assay. HPCs were isolated and cultured plus FIt3L, IL-7 and SCF cytokines. At Day 2, they were then transferred onto OP9 stromal cells plus or minus drug in culture medium plus the IL-15 cytokine. The media of the cultures were changed at Day 5 and the cells were harvested and analysed at Day 9.
Lineage negative cells are enriched for Hematopoietic Progenitor Cells (HPCs). […] Cells were harvested on Day 9 and analysed using flow cytometry to determine the number of NK1.1^+CD3^− cells (FIG. 2). NK1.1^+ and CD3^− are two cell surface markers that can define mouse NK cells. OP9 stromal cells were readily excluded from the analysis, as the OP9 stromal cells used were GFP positive (FIG. 3B). Flow cytometry data were analysed as the fold increase, relative to the ‘No drug’ or untreated control in each experiment. This is because the absolute percentage of NK cell production varies between experiments.
Lineage negative HSCs were purified from mouse bone marrow by crushing the leg bones in Phosphate-buffered Saline (PBS) with 2% fetal calf serum (FCS) (STEMCELL Technologies), topped up to 40 ml with magnetic-activated cell sorting (MACS) buffer (PBS, 2 mM EDTA, 0.5% BSA, sterile and filtered) and centrifuged at 800 g for 2 minutes. The cells were resuspended in PE-conjugated cocktail, (20 μl of anti-B220 (RA3-6B2), anti-mouse CD2 (RM2-5, anti-Ter119 (TER119) and anti-NK.1.1 (PK136) and 5 μl of anti-CD11b (M1/70) and anti-GR-1 (RB6-8C5) antibodies (all from Bioscience)) incubated for 5 minutes at 4° C., centrifuged and resuspended in anti-PE microbeads for 15 minutes at 4° C. Cells were washed in MACS buffer and passed through MACS columns. This allowed negative selection of HPCs. Following lineage depletion, 50 μl of the cells was analysed using flow cytometry to check for purity.
The HPCs were plated and cultured in 24-well plates at a concentration of 5×10^5 HPCs/well in 1 ml of complete cytokine medium (Dulbecco's modified eagle medium (DMEM) (Sigma Aldrich), 10% FCS, 50 μM β-Mercaptoethanol, 10 ng/ml Flt3-ligand (FIt3L) (R&D Systems), 10 ng/ml IL-7 (R&D Systems), 100 ng/ml stem cell factor (SCF) (R&D Systems) and 1% P/S) for 2 days at 37° C., 5% CO2. The HPCs were then transferred onto OP9 cells at 4500 cells/well for 96-well plate experiments and 3×10^4 cells/well for 24-well plate experiments in mouse NK cells differentiation medium (Alpha-MEM (Sigma Aldrich) plus 20% FCS, 1% P/S and 30 ng/ml IL-15). Cells were left in culture at 37° C., 5% CO2 for 7 days with a change of mouse NK cells differentiation medium at day 3 or 4.
Cells to be analysed by flow cytometry were passed through 40 μm cell strainers to remove clumps and washed with PBS buffer, centrifuged at 800 g for 2 minutes and resuspended in 100 μl fluorescent activated cell sorting (FACS) buffer (PBS plus 1% BSA) with appropriate fluorochrome conjugated antibodies at a dilution of 1 in 300. Cells were stained with the following antibodies, all of which were anti-mouse and are from eBioscience unless specified: 2B4 (clone m2B4(B6) 458.1; BioLegend), CD2 (RM2-5), CD3 (17A2), CD11b (M1/70), CD19 (1D3), CD27 (LG.7F9), CD122 (TM-b1), CD127 (A7R34), B220 (RA3-6B2), ckit (ACK2), Flt3 (A2F10), Gr1 (RB6-8C5), NK1.1 (PK136), Sca1 (D7), Ter119 (TER119), NKp46 (29A1.4) anti-human CD45 (HI30), anti-human CD2 (RPA-2.10) and anti-human CD56 (CMSSB). The lineage cocktail contained B220, CD2, CD11b, Gr1, NK1.1, and Ter119. Cells were stained in the dark at 4° C. for 30 minutes and then washed with 2 ml FACS buffer, centrifuged and resuspend in 300 μl FACS buffer plus Propidium Iodide (PI) also at a dilution of 1 in 300. Flow cytometry was performed using LSRFortessa™ cell analyser (Becton Dickinson Bioscience), sorted using FACSAria (Becton Dickinson) as indicated and full data analysis was done using FlowJo Software.

[2] = system: HPCs; experiment: Live cells / toxicity in mouse HPC culture under NK cell-producing conditions; type: cell-based
Method: FIG. […] At Day 9, percentage of NK cells was quantified using flow cytometry. (A) Graph showing relative mature mouse NK cell (NK1.1+ CD3−) production when 5 and 10 μM SR8278 were added on different days compared to the ‘No drug’ control. (B) Representative flow cytometry results with percentage of NK cells shown. Addition of 5 μM SR8278 is shown on the top, whereas addition of 10 μM SR8278 is shown on the bottom. […] Results were averaged from two experiments with four repeats each and the error bars represent the mean+SD. Asterisks indicate significant differences from the two annotated results (* is P≤0.01, *** is P≤0.0001 and **** is P≤0.00001) based on Mann-Whitney test.
The HPCs were plated and cultured in 24-well plates at a concentration of 5×10^5 HPCs/well in 1 ml of complete cytokine medium (Dulbecco's modified eagle medium (DMEM) (Sigma Aldrich), 10% FCS, 50 μM β-Mercaptoethanol, 10 ng/ml Flt3-ligand (FIt3L) (R&D Systems), 10 ng/ml IL-7 (R&D Systems), 100 ng/ml stem cell factor (SCF) (R&D Systems) and 1% P/S) for 2 days at 37° C., 5% CO2. […]
Cells to be analysed by flow cytometry were passed through 40 μm cell strainers to remove clumps and washed with PBS buffer, centrifuged at 800 g for 2 minutes and resuspended in 100 μl fluorescent activated cell sorting (FACS) buffer (PBS plus 1% BSA) with appropriate fluorochrome conjugated antibodies at a dilution of 1 in 300. […]

In the case of CCOC(=O)C1Cc2ccccc2CN1C(=O)c1ccc(SC)s1 (stereo not shown) [SR8278, 1,2,3,4-Tetrahydro-2-[[5-(methylthio)-2-thienyl]carbonyl]-3-isoquinolinecarboxylic acid ethyl ester], the “NK cell production relative to 'No drug' control” value ([1]; 5 μM added at Day 0 (greatest effect)) is reported as “over 1.4 fold”, the “increase in NK cell production, rank among 2, 5, 10 and 20 μM” value ([1]; 5 μM) is reported as “followed by 5 μM” and the “NK cell production increase compared to 'No drug' control” value ([1]; 10 μM added Day 2, analysed Day 9, screen (FIG. 3)) is reported as “over 2.4 fold”. The “increase in NK cell production relative to 'No drug' control” value ([1]; 10 μM added on Days 0, 1 and 2) was “over 1.6 fold”, the “increase in NK cell production, rank among 2, 5, 10 and 20 μM” value ([1]; 10 μM) was “highest increase in NK cell production” and the “number of NK cells detected” value ([1]; 20 μM added Day 2, analysed Day 9) was “reduction in the number of NK cells detected”. For the same compound, the “NK cell production relative to 'No drug' control” value ([1]; 5 or 10 μM added after Day 2) was “no significant difference”, the “production of NK cells in NK cell production assays increases” value ([1]; summary in Discussion, concentration not given) was “more than 2 fold” and the “toxicity to cells in culture” value ([2]; 20 μM) was “toxic and killed most of the cells”. The “numbers of live cells compared to 'No drug' control” value ([2]; added at Days 0 and 1, 5 and 10 μM) was “remarkably low”.
